Molecular target: T1, buffalo brain cystatin (BC)
T1 construct: gene CST3
Assay: intrinsic fluorescence quenching, log-log plot
Assay type: binding, Bubalus bubalis
Details: 1 μM BC, 50 mM sodium phosphate pH 7.5, 298 K, 30 min incubation, excitation 280 nm; n = 0.79
From the text: intrinsic fluorescence quenching, log-log plot on buffalo brain cystatin (BC)

## CNCCC(Oc1ccc(C(F)(F)F)cc1)c1ccccc1 (stereo not shown) [Fluoxetine]
  K (binding constant) mol^-1: 5.0317e+06 mol⁻¹

From paper PMC4131466, “Antidepressant Fluoxetine Modulates the In Vitro Inhibitory Activity of Buffalo Brain Cystatin: A Thermodynamic Study Using UV and Fluorescence Techniques” (Biotechnology Research International, 2014)
